Results reported in ChEMBL document CHEMBL1201862, “PubChem BioAssay data set” (2004).
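Compound exposure: 48 hours, 5 concentrations, 96-well plates. Abbreviation: GI50, concentration required for 50% inhibition of growth.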 The source made the active and inactive calls. Cut-off read from the data, not from the text of the source: active = GI50 up to about 1.1 µM and inactive = higher.

Legend:
Test in all cases: inhibition of tumour cell growth, NCI panel, 48 h
SW-620 = tested on: SW-620
HCT-15 = tested on: HCT-15
NCI-H226 = tested on: NCI-H226
SK-OV-3 = tested on: SK-OV-3
M14 = tested on: M14
SF-295 = tested on: SF-295
OVCAR-8 = tested on: OVCAR-8
OVCAR-5 = tested on: OVCAR-5
HL-60 = tested on: HL-60
K562 = tested on: K562
COLO 205 = tested on: COLO 205
SF-268 = tested on: SF-268
HCT-116 = tested on: HCT-116
NCI-H460 = tested on: NCI-H460
U-251 = tested on: U-251
UACC-62 = tested on: UACC-62
SK-MEL-28 = tested on: SK-MEL-28
A498 = tested on: A498
EKVX = tested on: EKVX
OVCAR-3 = tested on: OVCAR-3

SMILES | GI50 (SW-620) | GI50 (HCT-15) [µM] | GI50 (NCI-H226) | GI50 (SK-OV-3) | GI50 (M14) | GI50 (SF-295) | GI50 (OVCAR-8) | GI50 (OVCAR-5) | GI50 (HL-60) | GI50 (K562) | GI50 (COLO 205) | GI50 (SF-268) | GI50 (HCT-116) | GI50 (NCI-H460) | GI50 (U-251) | GI50 (UACC-62) | GI50 (SK-MEL-28) | GI50 (A498) | GI50 (EKVX) | GI50 (OVCAR-3)
Cc1ccnc2nc(N)ccc12 | > 100 µM (inactive) | > 100 | > 100 µM (inactive) | > 100 µM (inactive) | > 100 µM (inactive) | > 100 µM (inactive) | > 100 µM (inactive) | > 100 µM (inactive) | > 100 µM (inactive) | > 100 µM (inactive) | > 100 µM (inactive) | > 100 µM (inactive) | > 100 µM (inactive) | > 100 µM (inactive) | > 100 µM (inactive) | > 100 µM (inactive) | > 100 µM (inactive) | > 100 µM (inactive) | > 100 µM (inactive) | 
COc1ccc2c(c1)c1c(n2CCN(C)C)-c2ccccc2CC1 | 16.8 µM (inactive) | 13.7 | 12.2 µM (inactive) | 20.2 µM (inactive) | 15.6 µM (inactive) | 16.9 µM (inactive) | 16.9 µM (inactive) | 18.2 µM (inactive) |  | 11.5 µM (inactive) | 12.5 µM (inactive) | 18.1 µM (inactive) | 15.2 µM (inactive) | 16.7 µM (inactive) | 13.1 µM (inactive) | 14.5 µM (inactive) | 15 µM (inactive) |  | 9.77 µM (inactive) | 16.6 µM (inactive)
C[Si](C)(C)/C(I)=C/CO | 23.3 µM (inactive) | 24.8 | 20.4 µM (inactive) | 32.5 µM (inactive) | 35.2 µM (inactive) | 24.9 µM (inactive) | 29.7 µM (inactive) | 30.5 µM (inactive) |  | 19.4 µM (inactive) | 16.3 µM (inactive) | 27.1 µM (inactive) | 14.3 µM (inactive) | 19.7 µM (inactive) | 18.3 µM (inactive) | 20.4 µM (inactive) | 27.9 µM (inactive) | 38.6 µM (inactive) | 29.9 µM (inactive) | 24.7 µM (inactive)
CCOC(=O)C1(C(F)(F)F)N=C(CC)OC(N2CCOCC2)=N1 (centres undefined) | > 100 µM (inactive) | > 100 |  | > 100 µM (inactive) | > 100 µM (inactive) | > 100 µM (inactive) | > 100 µM (inactive) | > 100 µM (inactive) | > 100 µM (inactive) | > 100 µM (inactive) | > 100 µM (inactive) | > 100 µM (inactive) | > 100 µM (inactive) | > 100 µM (inactive) | > 100 µM (inactive) | 54.5 µM (inactive) | > 100 µM (inactive) |  | > 100 µM (inactive) | > 100 µM (inactive)
O=S1(=O)CC#CC[C@@H](CO)[C@@H](CO)CC#CC1 | 36.4 µM (inactive) | > 100 |  | > 100 µM (inactive) | 40.1 µM (inactive) | > 100 µM (inactive) | > 100 µM (inactive) | > 100 µM (inactive) | 53.7 µM (inactive) | 59 µM (inactive) |  |  | 61.2 µM (inactive) | > 100 µM (inactive) | > 100 µM (inactive) | > 100 µM (inactive) | 72.3 µM (inactive) |  | > 100 µM (inactive) | > 100 µM (inactive)
Cc1cc(O)c2c(c1O)C(=O)C13C(=C(O)C4C(O)C1C1C(O)C3C(O)=C3C(=O)c5c(O)cc(C)c(O)c5C(=O)C341)C2=O (centres undefined) | 0.0507 µM (active) | 0.0367 | 0.199 µM (active) | 0.0378 µM (active) |  | 0.03 µM (active) | 0.0615 µM (active) | 0.778 µM (active) |  | 0.0322 µM (active) | 0.0276 µM (active) | 0.0542 µM (active) | 0.0342 µM (active) | 0.0348 µM (active) | 0.0214 µM (active) | 0.0489 µM (active) | 0.106 µM (active) | 0.0362 µM (active) | 0.0845 µM (active) | 3.56 µM (inactive)
O=C(O)c1ccc(C(=O)O)c2c(C(=O)O)ccc(C(=O)O)c12 | > 100 µM (inactive) | > 100 | > 100 µM (inactive) | > 100 µM (inactive) | > 100 µM (inactive) | > 100 µM (inactive) | > 100 µM (inactive) | > 100 µM (inactive) |  | > 100 µM (inactive) | > 100 µM (inactive) | > 100 µM (inactive) | > 100 µM (inactive) | > 100 µM (inactive) | > 100 µM (inactive) | > 100 µM (inactive) | > 100 µM (inactive) | > 100 µM (inactive) | > 100 µM (inactive) | > 100 µM (inactive)
CC=C/C=C/[C@@H]1O[C@](O)([C@H](CC)C(=O)NC/C=C/C=C(\C)[C@@H](OC)[C@@H](C)[C@@H]2O[C@H](/C=C/C=C/C=C(\C)C(=O)c3c(O)cc[nH]c3=O)[C@H](O)[C@@H]2O)[C@H](O)[C@H](O)C1(C)C | > 100 µM (inactive) | > 100 |  | > 100 µM (inactive) | > 100 µM (inactive) | 69.7 µM (inactive) | 72.3 µM (inactive) | > 100 µM (inactive) | 93.5 µM (inactive) | > 100 µM (inactive) |  | > 100 µM (inactive) |  | 92.7 µM (inactive) | > 100 µM (inactive) | > 100 µM (inactive) | > 100 µM (inactive) | > 100 µM (inactive) | > 100 µM (inactive) | > 100 µM (inactive)
